Target: LMPTP-A (Low Molecular Weight Protein Tyrosine Phosphatase-A) enzyme (Homo sapiens (Human), UniProt P24666)
Test: LMPTP primary screening / LMPTP (OMFP) enzyme inhibition assay, fluorescence intensity
Type: biochemical
Settings: LMPTP-A, OMFP substrate, method of Example 2; read-out: IC50
Summary of the method: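 Single-concentration screen, test compounds 20 μM final, […]. Enzyme (0.625 nM) and OMFP (400 μM) react 50 min at room temp, dark, in Bis-Tris buffer pH 6.0 containing DTT 1 mM and Triton X-100 0.01%. Read-out: fluorescence intensity.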

Chain of LMPTP-A (Low Molecular Weight Protein Tyrosine Phosphatase-A) enzyme (P24666 whole entry): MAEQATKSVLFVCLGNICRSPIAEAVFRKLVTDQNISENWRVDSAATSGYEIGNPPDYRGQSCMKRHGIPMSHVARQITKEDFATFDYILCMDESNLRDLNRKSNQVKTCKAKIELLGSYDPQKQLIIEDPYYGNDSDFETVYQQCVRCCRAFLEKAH

Row | Compound | IC50 [nM]
1 | CN(C)C(=O)c1ccc(-c2cc(NCCCN3CCCCC3)c3ccccc3n2)cc1 [Compound I72] | 801 to 5000
2 | c1ccc2c(NCCCN3CCCCC3)cc(-c3ccc4c(c3)OCO4)nc2c1 [Compound I167, (2-(2H-benzo[3,4-d]1,3-dioxolen-5-yl)(4-quinolyl))(3-piperidylpropyl)amine] | 801 to 5000
3 | Nc1cc(C(=O)N2CCOCC2)cc(-c2cc(NCCCN3CCCCC3)c3ccccc3n2)c1 [Compound I80] | 801 to 5000
4 | NC(=O)c1ccc(-c2cc(N3CCC(Cc4ccc(N)cc4)CC3)c3ccccc3n2)cc1 [Compound I222, 4-(4-{4-[(4-aminophenyl)methyl]piperidyl}-2-quinolyl)benzamide] | > 5000
5 | COc1ccc(-c2cc(Nc3cccc(CN4CCCCC4)c3)c3ccccc3n2)cc1 [Compound G54, [2-(4-methoxyphenyl)(4-quinolyl)][3-(piperidylmethyl)phenyl]amine] | 801 to 5000
6 | CN1CCCC1CCNc1cc(-c2ccc(C(F)(F)F)cc2C(F)(F)F)nc2ccccc12 (stereo not drawn) [Compound I53, {2-[2,4-bis(trifluoromethyl)phenyl](4-quinolyl)}[2-(1-methylpyrrolidin-2-yl)ethyl]amine] | > 5000
7 | COc1ccc(-c2cc(NCCCN3CCCCC3)c3cc([N+](=O)[O-])ccc3n2)cc1 [Compound G29, [2-(4-Methoxy-phenyl)-6-nitro-quinolin-4-yl]-(3-piperidin-1-yl-propyl)-amine] | > 5000
8 | Cc1nc2ccc(-c3cc(NCCCN4CCCCC4)c4ccccc4n3)cc2s1 [Compound I248] | 801 to 5000
9 | FC(F)(F)c1cc(-c2cc(Nc3ccc(CN4CCCCC4)cc3)c3ccccc3n2)cc(C(F)(F)F)c1 [Compound I43, {2-[3,5-bis(trifluoromethyl)phenyl](4-quinolyl)}[4-(piperidylmethyl)phenyl]amine] | > 5000
10 | O=C(NC1CCNCC1)c1ccc(-c2cc(NCCCN3CCCCC3)c3ccccc3n2)cc1 [Compound I196] | 200 to 800
11 | c1ccc(-c2cc(NCCN3CCCC3)c3ccccc3n2)cc1 [Compound I181, (2-phenyl(4-quinolyl))(2-pyrrolidinylethyl)amine] | > 5000
12 | CCN(CC)CCCNc1cc(-c2ccc(C(N)=O)cc2)nc2ccccc12 [Compound I218, 4-(4-{[3-(diethylamino)propyl]amino}-2-quinolyl)benzamide] | > 5000
13 | COc1ccc(-c2cc(Nc3cccc(CN4CCN(C)CC4)c3)c3ccccc3n2)cc1 [Compound G60, [2-(4-methoxyphenyl)(4-quinolyl)]{3-[(4-methylpiperazinyl)methyl]phenyl}amine] | 801 to 5000
14 | O=S(=O)(c1ccccc1-c1cc(NCCCN2CCCCC2)c2ccccc2n1)N1CCOCC1 [Compound I233] | > 5000
15 | Fc1ccc(-c2cc(NCCCN3CCCCC3)c3ccccc3n2)cc1 [Compound G8, [2-(4-Fluoro-phenyl)-quinolin-4-yl]-(3-piperidin-1-yl-propyl)-amine] | 801 to 5000
16 | Fc1cc(F)cc(-c2cc(NCCCN3CCCCC3)c3ccccc3n2)c1 [Compound I85] | 801 to 5000
17 | N-ethyl-N-methyl(4-{4-[(3-piperidylpropyl)amino](2-quinolyl)}phenyl)carboxamide [Compound I60] | 801 to 5000
18 | COc1ccc(-c2cc(Nc3cncc(C)n3)c3ccccc3n2)cc1 [Compound G73, [2-(4-methoxyphenyl)(4-quinolyl)](6-methylpyrazin-2-yl)amine] | 801 to 5000
19 | COc1ccc(-c2cc(NCc3ccc(C(F)(F)F)cc3)c3ccccc3n2)cc1 [Compound G81, [2-(4-methoxyphenyl)(4-quinolyl)]{[4-(trifluoromethyl)phenyl]methyl}amine] | 801 to 5000
20 | COc1ccc(-c2cc(Nc3ccc(C(F)(F)F)cc3)c3ccccc3n2)cc1 [Compound G42, [2-(4-methoxyphenyl)(4-quinolyl)][4-(trifluoromethyl)phenyl]amine] | 801 to 5000
21 | CC(=O)NCc1ccc(-c2cc(NCCCN3CCCCC3)c3ccccc3n2)cc1 [Compound I255] | 200 to 800

Row | Compound | IC50 [nM]
22 | Clc1cccc(-c2cc(Nc3ccccc3CC3CCNCC3)c3ccccc3n2)c1 [Compound I21, [2-(3-chlorophenyl)(4-quinolyl)][2-(4-piperidylmethyl)phenyl]amine] | 801 to 5000
23 | COc1ccc(-c2cc(Nc3ccc(C#N)cc3)c3ccccc3n2)cc1 [Compound G47, 4-{[2-(4-methoxyphenyl)-4-quinolyl]amino}benzenecarbonitrile] | 200 to 800
24 | COc1ccc(-c2cc(Nc3cccnc3)c3ccccc3n2)cc1 [Compound G64] | 801 to 5000
25 | NC(=O)c1ccc(-c2cc(Nc3ccc(CC4CCNCC4)cc3)c3ccccc3n2)cc1 [Compound I220, 4-(4-{[4-(4-piperidylmethyl)phenyl]amino}-2-quinolyl)benzamide] | > 5000
26 | Fc1ccc(-c2cc(NCCCN3CCCCC3)c3ccccc3n2)c(F)c1F [Compound I115] | 801 to 5000
27 | O=C(NCCCN1CCOCC1)c1ccc(-c2cc(NCCCN3CCCCC3)c3ccccc3n2)cc1 [Compound I192] | 200 to 800
28 | FC(F)(F)c1cc(-c2cc(Nc3ccccc3CC3CCNCC3)c3ccccc3n2)cc(C(F)(F)F)c1 [Compound I49, {2-[3,5-bis(trifluoromethyl)phenyl](4-quinolyl)}[2-(4-piperidylmethyl)phenyl]amine] | > 5000
29 | N#CCCNC(=O)c1ccc(-c2cc(NCCCN3CCCCC3)c3ccccc3n2)cc1 [Compound I265] | 200 to 800
30 | CC(=O)Nc1ccc(-c2cc(NCCCN3CCCCC3)c3ccccc3n2)cc1F [Compound I232] | 801 to 5000
31 | CN(C)c1cccc(-c2cc(NCCCN3CCCCC3)c3ccccc3n2)c1 [Compound I129] | 801 to 5000
32 | CC(C)CNC(=O)c1ccc(-c2cc(NCCCN3CCCCC3)c3ccccc3n2)cc1 [Compound I226] | 801 to 5000
33 | COc1ccc(-c2cc(Nc3cccc(CN4CCCC4)c3)c3c(n2)CCCC3)cc1 [Compound I209, [2-(4-methoxyphenyl)(4-5,6,7,8-tetrahydroquinolyl)][3-(pyrrolidinylmethyl)phenyl]amine] | 801 to 5000
34 | C[N+]1(C)CCC(Cc2cccc(Nc3cc(-c4cc(C(F)(F)F)cc(C(F)(F)F)c4)nc4ccccc34)c2)CC1 [Compound I51, {3-[(1,1-dimethyl(4-piperidyl))methyl]phenyl} {2-[3,5-bis(trifluoromethyl)phenyl](4-quinolyl)}amine] | > 5000
35 | Cc1cc(-c2cc(NCCCN3CCCCC3)c3ccccc3n2)cnc1C#N [Compound I83] | 801 to 5000
36 | COc1ccc(-c2cc(Nc3cccc4cccnc34)c3ccccc3n2)cc1 [Compound G69] | > 5000
37 | CSc1ccccc1-c1cc(NCCCN2CCCCC2)c2ccccc2n1 [Compound I158] | 200 to 800
38 | O=C(O)CCC(=O)Nc1ccc(-c2cc(NCCCN3CCCCC3)c3ccccc3n2)cc1 [Compound I58] | 801 to 5000
39 | COc1ccc(-c2cc(NCCc3ccccc3)c3ccccc3n2)cc1 [Compound G83, [2-(4-methoxyphenyl)(4-quinolyl)](2-phenylethyl)amine] | 801 to 5000
40 | Cc1cc(NCCCN2CCCCC2)c2ccccc2n1 [Compound I151] | > 5000
41 | C[Si](C)(C)c1cccc(-c2cc(NCCCN3CCCCC3)c3ccccc3n2)c1 [Compound I145] | 801 to 5000
42 | c1csc(-c2cc(NCCCN3CCCCC3)c3ccccc3n2)c1 [Compound G16, (3-Piperidin-1-yl-propyl)-(2-thiophen-2-yl-quinolin-4-yl)-amine] | 801 to 5000

Reference: US10626094B2 (La Jolla Institute of Allergy & Immunology, priority 2014, dated 2020)
